Data: article PMC6562844, “A Basic Study of Photodynamic Therapy with Glucose-Conjugated Chlorin e6 Using Mammary Carcinoma Xenografts” (Cancers, 2019)

Legend:
SNP cells [1] = test: Kinetics experiment to assess apoptosis (IncuCyte Annexin V live-cell analysis); format: cell-based, canine; details: 5 J/cm^2
Experimental: SNP cells were seeded at a density of (1–2) × 10^4 cells/well in 96-well plates and incubated for 24 h. The cells were then incubated with various concentrations of G-Ce6 (0, 0.064, 0.32, 1.6, or 8.0 μg/mL) for 24 h at 37 °C. After washing with fresh media, the cells were irradiated with 650-nm laser light (10 mW/cm^2, 5 J/cm^2) emitted by a semiconductor laser, using an optical fiber with a microlens delivery attachment. The cells were then stained with IncuCyte® Annexin V (Essen BioScience Inc., Ann Arbor, MI, USA) immediately following PDT, and incubated in a 5% CO2 atmosphere at 37 °C for 24 h. Images were automatically captured every 1 h for 24 h in phase-contrast and fluorescence modes using the IncuCyte® S3 system; phase contrast and green-phase images were obtained from the system. The total green object integrated intensity (green calibrated unit (GCU) × μm²/image) in an image was determined by object counting with IncuCyte® S3 Software according to the manufacturer’s protocol. In the present study, object counting is defined as the total sum of the intensity of Annexin V Green fluorescence in the image.

SNP cells [2] = test: Analysis of apoptosis (Muse Annexin V and Dead Cell Assay kit); format: cell-based, canine; details: 8 μg/mL; 1, 5, or 15 J/cm^2; 4 h after PDT; p < 0.01
Experimental: SNP cells were seeded at a density of 5 × 10^4 cells/well in 35-mm petri dishes containing 2 mL culture medium. Following 24 h of incubation, the cells were divided into the following groups: control (no treatment); laser (irradiated with a light dose of 15 J/cm^2); G-Ce6 (treated with 8 μg/mL G-Ce6); and PDT (treated with 8 μg/mL G-Ce6, and then irradiated with a light dose of 1, 5, or 15 J/cm^2).
The cells were incubated with 8 μg/mL G-Ce6 for 24 h. After washing with fresh media, the cells were irradiated with 650-nm laser light (10 mW/cm^2; 1, 5, and 15 J/cm^2) emitted by a semiconductor laser, using an optical fiber with a microlens delivery attachment. Apoptosis was assessed 4 h after laser irradiation using the Muse Annexin V and Dead Cell Assay kit (EMD Millipore Co., Billerica, MA, USA), according to the manufacturer’s protocols. Annexin V was used to detect phosphatidylserine on the external membrane of apoptotic cells.
Single-cell suspensions were then loaded onto the Muse Cell Analyzer (EMD Millipore Co.).

SNP cells [3] = test: Effect of a pan-caspase inhibitor on G-Ce6-PDT-induced cell death; format: cell-based, canine; details: 8 μg/mL G-Ce6; 10 μM Z-VAD-FMK; 5 J/cm^2
Experimental: SNP cells were incubated with 8 μg/mL G-Ce6 for 24 h in the presence (10 μM) or absence of Z-VAD-FMK (Medical & Biological Laboratories Co. Ltd., Aichi, Japan), which is a pan-caspase inhibitor. After washing with fresh media, the cells were irradiated with 650-nm laser light (10 mW/cm^2, 5 J/cm^2) emitted by a semiconductor laser, using an optical fiber with a microlens delivery attachment. Apoptosis was assessed at 4 h after laser irradiation using the Muse Annexin V and Dead Cell Assay kit.

SNP tumors = test: Histological examination of SNP tumors after PDT (H&E); format: in vivo, NOD/ShiJic-scidJcl mice
Experimental: To examine PDT-induced histological changes in the tumor tissue and surrounding normal tissue, animals were sacrificed via cervical dislocation, and the tumors were harvested at 24 h after PDT. The tumor tissues were fixed in 10% buffered formalin and embedded in paraffin. Tumor sections were cut at a thickness of 4 μm, stained with hematoxylin & eosin (H&E), and examined under a light microscope (Olympus BX51).

[4] = General physical examination and blood analysis in dogs; format: in vivo, healthy beagle dogs; details: for ALP / ALT / AST / BUN / Cre / GGT / Glu: Post (1 day after administration)
Experimental: The animal protocol using healthy beagle dogs was approved by the Animal Research Committee of the Tottori University (project number: 17-T-3). For the pharmacokinetic crossover study, 6, 3, and 1 healthy beagle dogs were intravenously administered G-Ce6 at a dose of 2, 5, and 20 mg/kg, respectively. The ages of the healthy dogs (3 males and 3 females) ranged from 6–12 years old (mean and median, 8.6 and 7.5 years, respectively); the dogs weighed 8.7–11.2 kg (mean and median, 10.2 and 10.5 kg, respectively).
A general physical examination was performed on all dogs before and after PDT. Serum biochemistry analysis of glucose (Glu), AST, ALT, alkaline phosphatase (ALP), γ-glutamyltranspeptidase (GGT), blood urea nitrogen, and creatinine (Cre) was also performed for all dogs immediately before and 1 day after G-Ce6 administration.

[5] = tested on: murine colon cancer cells; parameters: method as in PMID 29408755; details: light dose of 16 J/cm^2; read-out: IC50 against murine colon cancer cells; cited from earlier work

## CCC1=C(C)c2cc3[nH]c(cc4nc(c(CC(=O)OC)c5[nH]c(cc1n2)c(C)c5C(=O)OC)[C@@H](CCC(=O)OC)[C@@H]4C)c(C)c3C(C)OCCCS[C@@H]1O[C@H](CO)[C@@H](O)[C@H](O)[C@H]1O (stereo partly drawn) [G-Ce6, Methyl (7S,8S)-18-ethyl-5-(2-methoxy-2-oxoethyl)-7-(3-methoxy-3-oxopropyl)-2,8,12,17-tetramethyl-13-(1-(3-(((2S,3R,4S,5S,6R)-3,4,5-trihydroxy-6-(hydroxymethyl)tetrahydro-2H-pyran-2-yl)thio)propoxy)ethyl)-7H,8H-porphyrin-3-carboxylate]
SNP cells [1]; 0.32 μg/mL
  Time after PDT at which GCU began to increase: 1 to 3 h
  Time after PDT at which GCU reached a maximum: 10 h
SNP cells [1]; 8 μg/mL
  Time after PDT at which apoptosis (GCU) reached a plateau: approximately 4 h
SNP cells [1]; <0.064 μg/mL
  Total green object integrated intensity (GCU × μm²/image) after PDT: did not increase
SNP cells [2]
  Apoptotic rates compared with control group: significantly higher
SNP cells [3]
  G-Ce6-PDT-induced apoptosis and cell death in the presence of Z-VAD-FMK: could not be blocked
SNP tumors; 3-h-interval PDT
  Histological findings 24 h after PDT: cells at the superficial tumor tissue appeared necrotic, whereas deep-seated tumor cells appeared intact
SNP tumors; 5-min-interval PDT
  Histological findings 24 h after PDT: widespread tumor cells appeared necrotic
[4]; 2 mg/kg i.v.
  Changes in serum biochemical parameters: No significant changes
  Major skin photosensitivity or acute toxicity (vomiting, diarrhea, salivation): no evidence
  Tolerability in safety examination: well tolerated
  ALP: 154 ± 59.69 U/L
  ALT: 40 ± 7.17 U/L
  AST: 32 ± 4.72 U/L
  BUN: 15.8 ± 4.20 mg/dL
  Cre: 0.5 ± 0.09 mg/dL
  GGT: 1.5 ± 2.35 U/L
  Glu: 99.5 ± 17.85 mg/dL
[4]; 5 mg/kg i.v.
  Changes in serum biochemical parameters: no significant changes
  Side effects during administration: Nausea was observed
  ALP: 141.0 ± 47.04 U/L
  ALT: 59.0 ± 9.52 U/L
  AST: 31.0 ± 10.47 U/L
  BUN: 13.4 ± 5.05 mg/dL
  Cre: 0.5 ± 0.13 mg/dL
  GGT: 5.0 ± 1.63 U/L
  Glu: 96.0 ± 10.88 mg/dL
[4]; 20 mg/kg i.v.
  Levels of AST and ALT in blood: Increases
  Side effects during administration: vomiting and weakness
  ALP: 134.0 U/L
  ALT: 135.0 U/L
  AST: 55.0 U/L
  BUN: 8.6 mg/dL
  Cre: 0.5 mg/dL
  GGT: 14.0 U/L
  Glu: 107.0 mg/dL
[4]; i.v.
  Toxic dose level: 20 mg/kg
[4]; i.v., based on pharmacokinetics and safety examination
  Optimal dose, which did not cause any adverse effects: 2 mg/kg
[5]
  IC50: 1.35 nM
